Test results: patent US7943128B2, “Anti-microbial compositions comprising a cationic peptide and a glycylglycine endopeptidase” (priority 2006, dated 2011)
Positions of bridges follow the written chain, without caps; N, C: chain ends. No end group written: not given here.

Experiments:
[1] = tested on: Staphylococcus aureus strains MSSA476 and MRSA252; experiment: Microtitre plate growth inhibition with dermaseptin s3(1-16) or magainin 2 and lysostaphin (Examples 3, 4); type: cell-based; settings: either strain, up to 50 μg ml^−1
[2] = tested on: Staphylococcus aureus MRSA252 and Staphylococcus aureus MSSA476; experiment: Impregnated dried paper disks on TSA plates, zones of inhibition; type: cell-based; settings: none at lower amounts
Method: Sterile Whatman paper disks were impregnated with ranalexin (0.5, 1, 2, 5, 10 or 20 μg), with lysostaphin (0.1, 0.2, 0.5, 1, 2 or 5 μg), a combination of 1 μg lysostaphin and ranalexin (0.5, 1, 2, 5, 10 or 20 μg), or a combination of 10 μg ranalexin and lysostaphin ([…], 0.5, 1, 2 or 5 μg). The paper disks were allowed to dry overnight and then stored at −20° C. until required.
Cultures of Staphylococcus aureus MRSA252 and Staphylococcus aureus MSSA476 were grown to mid-log phase (OD600 0.6-0.9) and diluted to 0.6 if necessary. 150 μl of the culture was then spread onto TSA (Tryptone Soya Agar; Oxoid, Basingstoke, UK) plates and allowed to dry. An impregnated paper disk prepared as described above was placed centrally on the agar plates. Plates were incubated for 20 hours at 37° C. before visual assessment of the zones of inhibition (see FIG. 8) which were visible as clear areas around the disks.

MRSA252 = experiment: Bactericidal assay, survivors after 30 minute exposure in TSB broth; type: cell-based, Staphylococcus aureus
Method: MRSA252 in TSB broth was exposed for 30 mins to either: increasing concentrations (0, 1, 2, 4, 6, 8 and 10 μg/ml) of ranalexin alone (filled squares); increasing concentrations (0.0, 0.01, 0.02, 0.04, 0.06, 0.08, 0.1 μg/ml) of lysostaphin alone (filled circles); or a combination of 8 μg/ml ranalexin with increasing concentrations (0.0, 0.01, 0.02, 0.04, 0.06, 0.08, 0.1 μg/ml) of lysostaphin. Total cell numbers, or survivors, after a 30 minute exposure to each of the above conditions were determined by serial dilution and plating on TSB agar. Survivors were determined after 24 hours incubation of the TSB plates at 37° C. and expressed as the log of colony forming units per ml of broth. The arrows on FIG. 7 indicate that the numbers of survivors were less than the minimum detectable by this method.

[3] = tested on: Staphylococcus aureus MRSA252; experiment: Microtitre plate growth inhibition in TSB, 48 hours, turbidity; type: cell-based; settings: for concentration needed for inhibition, compound alone: MRSA252, 48 hours, in the absence of the other compound
Method: (§1) Staphylococcus aureus strains MSSA476 (left) and MRSA252 (right) were cultivated in TSB (Tryptone Soya Broth; Oxoid Basingstoke, UK) to mid-exponential phase. Cultures were then diluted in fresh medium to a starting optical density of 600 nm of 0.001 (approximately 1.0×10^6 cells/ml). Growth of 100 μl volume cultures was measured in 96-well culture plates using TSB as control for 37° C. for 48 hours without shaking in the presence of 0 μg ranalexin/ml medium to 50 μg/ml, increasing stepwise by 5 μg/ml. 8 samples were cultivated for each concentration of ranalexin and to each such sample a different concentration of lysostaphin was added from 0 μg/ml to 1.05 μg/ml in steps of 0.15 μg/ml. The antibacterial activity was measured by reduced turbidity measured by optical density by scanning on an Image Scanner (GE Healthcare UK Ltd) using Image Master Labscan v.3 software. The concentration of ranalexin is indicated above the respective column, each well of a column having the same ranalexin concentration. The wells of each row contain lysostaphin at a final concentration of 0 μg lysostaphin per ml medium to 1.05 μg/ml (as indicated on left), increasing stepwise by 0.15 μg/ml. For S. aureus MSSA476 cultivated in the absence of lysostaphin, ranalexin provides an inhibitory effect at concentrations above 30 μg/ml medium (typically 35 to 40 μg/ml). […] The combination of ranalexin and lysostaphin reduces the necessary amount of each of the compounds by providing a synergistic antimicrobial effect.
(§2) Staphylococcus aureus strains MSSA476 (left) and MRSA252 (right) were cultivated in TSB medium as described in Example 1, except for the narrower concentration ranges of ranalexin and lysostaphin. Ranalexin is provided at concentrations of 0 μg/ml, 0.5 μg/ml and 1 μg/ml to 10 μg/ml, increasing stepwise by 1 μg/ml medium, and lysostaphin concentrations of 0 μg/ml to 0.2 μg/ml, with intermediate concentrations of 0.01 μg/ml, 0.025 μg/ml, 0.05 μg/ml, 0.075 μg/ml, 0.1 μg/ml and 0.15 μg/ml as indicated in FIG. 2.

[4] = tested on: Staphylococcus aureus MSSA476; experiment: as above; type: cell-based
Method: as §1, §2

Row | Substance | inhibitory effect of the peptide alone [1] | zone of inhibition, agent alone ([2]; disk with 5 μg lysostaphin) | reduction in numbers (MRSA252; 0.06 μg ml^−1 lysostaphin, 30 minutes) | effect on viable cell numbers (MRSA252; lysostaphin alone, 0.01 to 0.1 μg ml, 30 minutes) | concentration needed for inhibition, compound alone [3] | MIC ([3]; MRSA252, lysostaphin alone) | concentration providing an inhibitory effect, compound alone ([4]; MSSA476, 48 hours, in the absence of the other compound) | MIC ([4]; MSSA476, lysostaphin alone) | zone of inhibition, agent alone ([2]; disk with 20 μg ranalexin) | effect on viability (MRSA252; ranalexin alone up to 10 μg ml^−1, 30 minutes)
1 | Magainin 2 | little inhibitory effect |  |  |  |  |  |  |  |  | 
2 | lysostaphin: 27 kDa zinc-dependent metallopeptidase (glycylglycine endopeptidase) secreted by Staphylococcus simulans and S. staphylolyticus |  | some minimal inhibition | 0.5 log | minor decrease in viable cell numbers | above 0.45 μg/ml | approximately 0.45 μgml | above 0.75 μg/ml | approximately 0.75 μg/ml |  | 
3 | ranalexin: 20 amino acid bullfrog peptide FLGGLIKIVPAMICAVTKKC (SEQ ID NO 1) with a single intramolecular disulphide bond (FLGGLIKIVPAMICAVTKKC; disulfide 14-20 (inferred); listed as Rana catesbeiana) |  |  |  |  | above 40 μg/ml |  |  |  | some minimal inhibition | no detectable effect on viability
